For assay [1], the target named is T1, human VEGF receptor (VEGFR-2) (Homo sapiens, UniProt P35968).
T1 construct: The cytoplasmic domain of the human VEGF receptor (VEGFR-2) was expressed; His; made in house; host or cells: insect cells (baculovirus)
Kind of assay: VEGFR2 kinase assay. The assay is classed as biochemical. As to conditions: His-VEGFR-2 cytoplasmic domain, 3.6 μM ATP; Table IV, amide or urea linker; read-out: VEGFR2 Enzyme IC50. The method, boiled down:
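His-tagged VEGFR-2 cytoplasmic domain from baculovirus-infected insect cells phosphorylating plate-bound poly-Glu-Tyr (4:1). IC50 from blank-subtracted optical density versus compound concentration.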

In another assay the target is VEGFR1 (Homo sapiens, UniProt P17948). Kind of assay: VEGFR1 enzyme assay. The assay is classed as biochemical. As to conditions: Table IV, amide or urea linker.
A further assay concerns the target PDGFβ (Homo sapiens, UniProt P09619). The experiment in a line: PDGFβ enzyme assay. The assay is classed as biochemical. As to conditions: Table IV, amide or urea linker.
In the next assay the target is VEGFR2 (Homo sapiens, UniProt P35968). Kind of assay: VEGF stimulated Ca++ signal in vitro (FLIPR).
Chain of VEGFR2 (P35968 20-1356): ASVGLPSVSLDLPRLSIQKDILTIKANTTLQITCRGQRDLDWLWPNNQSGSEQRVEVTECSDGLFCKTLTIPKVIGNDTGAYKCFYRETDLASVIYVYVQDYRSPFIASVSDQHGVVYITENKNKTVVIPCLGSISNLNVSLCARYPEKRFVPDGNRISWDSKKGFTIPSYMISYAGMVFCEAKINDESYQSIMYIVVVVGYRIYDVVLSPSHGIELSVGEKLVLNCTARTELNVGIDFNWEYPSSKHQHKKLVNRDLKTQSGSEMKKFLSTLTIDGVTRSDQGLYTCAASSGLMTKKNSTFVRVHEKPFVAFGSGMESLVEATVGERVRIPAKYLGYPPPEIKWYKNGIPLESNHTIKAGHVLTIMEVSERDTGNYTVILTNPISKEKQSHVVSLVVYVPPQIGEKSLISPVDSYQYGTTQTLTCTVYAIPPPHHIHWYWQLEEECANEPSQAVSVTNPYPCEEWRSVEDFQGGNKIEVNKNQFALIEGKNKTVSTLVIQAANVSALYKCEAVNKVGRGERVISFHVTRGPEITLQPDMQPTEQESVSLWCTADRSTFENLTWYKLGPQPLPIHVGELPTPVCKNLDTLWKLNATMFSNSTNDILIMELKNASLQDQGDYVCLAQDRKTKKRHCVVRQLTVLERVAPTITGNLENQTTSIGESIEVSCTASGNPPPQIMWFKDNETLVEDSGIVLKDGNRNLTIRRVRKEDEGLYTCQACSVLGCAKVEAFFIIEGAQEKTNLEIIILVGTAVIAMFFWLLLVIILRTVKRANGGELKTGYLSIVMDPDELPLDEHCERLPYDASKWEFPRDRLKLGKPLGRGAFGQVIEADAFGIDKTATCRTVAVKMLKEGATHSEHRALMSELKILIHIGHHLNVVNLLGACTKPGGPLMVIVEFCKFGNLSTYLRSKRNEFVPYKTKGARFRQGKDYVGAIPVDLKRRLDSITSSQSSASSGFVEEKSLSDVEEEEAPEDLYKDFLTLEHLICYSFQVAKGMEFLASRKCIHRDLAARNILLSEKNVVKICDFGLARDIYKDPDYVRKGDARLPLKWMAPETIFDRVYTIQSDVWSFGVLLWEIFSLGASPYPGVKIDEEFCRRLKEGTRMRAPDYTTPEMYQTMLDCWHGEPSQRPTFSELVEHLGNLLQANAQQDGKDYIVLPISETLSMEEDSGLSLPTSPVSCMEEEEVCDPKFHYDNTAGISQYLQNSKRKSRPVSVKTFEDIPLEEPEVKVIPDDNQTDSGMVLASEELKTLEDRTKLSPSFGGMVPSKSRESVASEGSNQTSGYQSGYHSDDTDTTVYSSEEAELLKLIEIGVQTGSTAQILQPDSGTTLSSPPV

T1 sequence (P35968 786-1356 limits assumed): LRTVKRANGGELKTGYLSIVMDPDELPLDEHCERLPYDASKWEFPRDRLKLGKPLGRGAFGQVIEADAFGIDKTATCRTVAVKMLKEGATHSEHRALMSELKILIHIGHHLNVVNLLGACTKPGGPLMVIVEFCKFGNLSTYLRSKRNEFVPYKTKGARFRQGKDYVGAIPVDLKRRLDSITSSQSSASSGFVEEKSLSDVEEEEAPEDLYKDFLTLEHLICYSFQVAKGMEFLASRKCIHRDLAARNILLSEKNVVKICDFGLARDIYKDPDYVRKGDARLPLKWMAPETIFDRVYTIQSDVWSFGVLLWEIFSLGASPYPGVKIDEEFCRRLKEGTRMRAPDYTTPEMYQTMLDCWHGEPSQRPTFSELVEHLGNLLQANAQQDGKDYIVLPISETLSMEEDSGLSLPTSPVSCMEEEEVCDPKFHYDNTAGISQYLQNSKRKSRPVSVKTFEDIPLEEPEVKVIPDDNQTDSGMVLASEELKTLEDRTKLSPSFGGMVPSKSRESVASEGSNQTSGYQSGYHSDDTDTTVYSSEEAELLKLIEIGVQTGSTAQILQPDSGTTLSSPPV
Chain of VEGFR1 (P17948 27-1338, species assumed): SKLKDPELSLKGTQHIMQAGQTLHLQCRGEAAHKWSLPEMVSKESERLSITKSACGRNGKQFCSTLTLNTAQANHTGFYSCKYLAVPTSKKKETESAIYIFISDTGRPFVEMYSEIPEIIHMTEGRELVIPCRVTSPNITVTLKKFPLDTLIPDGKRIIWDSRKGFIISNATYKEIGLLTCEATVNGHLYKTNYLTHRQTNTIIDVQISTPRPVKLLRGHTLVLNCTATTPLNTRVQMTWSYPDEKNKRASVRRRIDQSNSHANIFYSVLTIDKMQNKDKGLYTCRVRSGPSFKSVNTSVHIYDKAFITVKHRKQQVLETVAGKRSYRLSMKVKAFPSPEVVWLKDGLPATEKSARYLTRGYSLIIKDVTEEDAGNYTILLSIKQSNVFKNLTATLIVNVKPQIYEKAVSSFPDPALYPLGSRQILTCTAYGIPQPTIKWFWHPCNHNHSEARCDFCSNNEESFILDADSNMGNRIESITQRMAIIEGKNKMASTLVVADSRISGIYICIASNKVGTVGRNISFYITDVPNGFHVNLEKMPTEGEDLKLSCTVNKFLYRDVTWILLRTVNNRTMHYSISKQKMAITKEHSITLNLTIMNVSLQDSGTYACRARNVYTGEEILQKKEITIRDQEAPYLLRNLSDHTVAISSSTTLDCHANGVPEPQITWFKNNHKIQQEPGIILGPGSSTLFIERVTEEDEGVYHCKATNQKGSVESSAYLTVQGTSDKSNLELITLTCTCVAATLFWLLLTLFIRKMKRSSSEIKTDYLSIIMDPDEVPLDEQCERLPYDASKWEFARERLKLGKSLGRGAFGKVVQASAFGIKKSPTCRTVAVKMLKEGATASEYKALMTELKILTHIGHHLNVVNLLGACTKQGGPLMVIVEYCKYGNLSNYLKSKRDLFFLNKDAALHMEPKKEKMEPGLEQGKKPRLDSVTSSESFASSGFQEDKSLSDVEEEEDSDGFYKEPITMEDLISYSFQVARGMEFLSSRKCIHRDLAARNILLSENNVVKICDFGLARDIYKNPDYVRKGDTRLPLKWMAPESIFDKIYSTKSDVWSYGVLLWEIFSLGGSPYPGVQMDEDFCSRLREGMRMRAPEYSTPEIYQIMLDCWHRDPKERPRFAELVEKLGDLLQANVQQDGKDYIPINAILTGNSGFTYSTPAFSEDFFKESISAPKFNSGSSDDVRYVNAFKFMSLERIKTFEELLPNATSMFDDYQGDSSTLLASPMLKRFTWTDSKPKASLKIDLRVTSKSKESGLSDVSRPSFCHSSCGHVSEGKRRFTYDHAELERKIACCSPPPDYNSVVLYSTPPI
Chain of PDGFβ (P09619 33-1106): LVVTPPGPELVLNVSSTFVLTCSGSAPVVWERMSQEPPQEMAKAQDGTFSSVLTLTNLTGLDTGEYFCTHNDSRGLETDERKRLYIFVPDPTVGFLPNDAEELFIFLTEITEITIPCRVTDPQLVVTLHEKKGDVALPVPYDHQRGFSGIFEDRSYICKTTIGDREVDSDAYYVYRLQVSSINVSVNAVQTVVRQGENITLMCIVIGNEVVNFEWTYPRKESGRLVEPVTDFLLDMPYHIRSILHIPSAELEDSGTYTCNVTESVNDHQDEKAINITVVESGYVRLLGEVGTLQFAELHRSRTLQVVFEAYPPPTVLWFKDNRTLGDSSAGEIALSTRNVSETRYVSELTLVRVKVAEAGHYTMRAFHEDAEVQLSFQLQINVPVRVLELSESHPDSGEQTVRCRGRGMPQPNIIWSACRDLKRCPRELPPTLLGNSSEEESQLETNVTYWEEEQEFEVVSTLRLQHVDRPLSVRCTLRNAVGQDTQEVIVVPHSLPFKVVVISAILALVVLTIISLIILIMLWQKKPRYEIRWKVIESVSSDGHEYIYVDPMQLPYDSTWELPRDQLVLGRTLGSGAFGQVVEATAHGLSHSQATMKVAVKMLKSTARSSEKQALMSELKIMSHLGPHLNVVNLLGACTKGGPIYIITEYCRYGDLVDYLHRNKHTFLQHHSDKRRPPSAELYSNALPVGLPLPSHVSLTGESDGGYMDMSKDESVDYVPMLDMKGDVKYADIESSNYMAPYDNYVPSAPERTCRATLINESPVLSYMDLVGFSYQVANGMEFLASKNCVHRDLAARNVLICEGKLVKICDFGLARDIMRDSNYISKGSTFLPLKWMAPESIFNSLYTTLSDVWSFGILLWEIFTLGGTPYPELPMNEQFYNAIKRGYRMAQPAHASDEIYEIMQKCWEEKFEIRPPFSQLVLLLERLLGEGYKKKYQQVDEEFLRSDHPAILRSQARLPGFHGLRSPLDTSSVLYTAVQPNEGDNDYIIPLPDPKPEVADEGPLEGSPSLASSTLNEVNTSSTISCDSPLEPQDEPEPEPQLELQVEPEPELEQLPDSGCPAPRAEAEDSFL

What is called IC50 is the concentration that gives 50% inhibition. Consider `COC(=O)[C@@H]1C[C@@H](O)CN1CCNC(=O)c1c[nH]c(-c2cc(Oc3ccc(NC(=O)Nc4cc(C)ccc4F)cc3)ccn2)c1` (relative stereo) [Example 161, methyl rel-(2R,4S)-1-(2-{[(5-{4-[4-({[(2-fluoro-5-methylphenyl)amino]carbonyl}amino)phenoxy]pyridin-2-yl}-1H-pyrrol-3-yl)carbonyl]amino}ethyl)-4-hydroxypyrrolidine-2-carboxylate], for which the concentration for half-maximal inhibition (IC50) was determined as 9 nM in assay [1], 9 nM against VEGFR1, 20 nM against PDGFβ and 10 nM against VEGFR2.

As for `COC(=O)[C@@H]1C[C@@H](O)CN1CCCNC(=O)c1c[nH]c(-c2cc(Oc3ccc(NC(=O)Nc4cc(C)ccc4F)cc3)ccn2)c1` (relative stereo) [Example 164, methyl rel-(2R,4S)-1-(3-{[(5-{4-[4-({[(2-fluoro-5-methylphenyl)amino]carbonyl}amino)phenoxy]pyridin-2-yl}-1H-pyrrol-3-yl)carbonyl]amino}propyl)-4-hydroxypyrrolidine-2-carboxylate], the IC50 in assay [1] was 9 nM; on VEGFR1, 10 nM; at PDGFβ, 17 nM; on VEGFR2, 5 nM.

Take `COC(=O)[C@@H]1C[C@@H](O)CN1CCCNC(=O)c1c[nH]c(-c2cc(Oc3ccc(NC(=O)Nc4cc(C)ccc4F)c(F)c3)ccn2)c1` (relative stereo) [Example 217, methyl rel-(2R,4S)-1-(3-{[(5-{4-[3-fluoro-4-({[(2-fluoro-5-methylphenyl)amino]carbonyl}amino)phenoxy]pyridin-2-yl}-1H-pyrrol-3-yl)carbonyl]amino}propyl)-4-hydroxypyrrolidine-2-carboxylate]: the IC50 is 5 nM in assay [1], 10 nM at VEGFR1, 21 nM against PDGFβ and 10 nM against VEGFR2.

Take `COC(=O)CNCCCNC(=O)c1c[nH]c(-c2cc(Oc3ccc(NC(=O)Nc4cc(C)ccc4F)cc3)ccn2)c1` [Example 154, methyl [(3-{[(5-{4-[4-({[(2-fluoro-5-methylphenyl)amino]carbonyl}amino)phenoxy]pyridin-2-yl}-1H-pyrrol-3-yl)carbonyl]amino}propyl)amino]acetate]: the IC50 amounted to 7 nM in assay [1], 8 nM on VEGFR1, 15 nM on PDGFβ and 14 nM at VEGFR2.

For `COC(=O)CNCCNC(=O)c1c[nH]c(-c2cc(Oc3ccc(NC(=O)Nc4cc(C)ccc4F)cc3)ccn2)c1` [Example 155, methyl [(2-{[(5-{4-[4-({[(2-fluoro-5-methylphenyl)amino]carbonyl}amino)phenoxy]pyridin-2-yl}-1H-pyrrol-3-yl)carbonyl]amino}ethyl)amino]acetate], the IC50 in assay [1] worked out at 8 nM; against VEGFR1, 7 nM; on PDGFβ it was 20 nM; at VEGFR2 it was 4 nM.

In the case of `COC(=O)CN(CCNC(=O)c1c[nH]c(-c2cc(Oc3ccc(NC(=O)Nc4cc(C)ccc4F)cc3)ccn2)c1)CC(=O)OC` [Example 156, dimethyl 2,2′-[(2-{[(5-{4-[4-({[(2-fluoro-5-methylphenyl)amino]carbonyl}amino)phenoxy]pyridin-2-yl}-1H-pyrrol-3-yl)carbonyl]amino}ethyl)imino]diacetate], the IC50 in assay [1] stood at 11 nM; against VEGFR1, 8 nM; at PDGFβ, 31 nM; on VEGFR2, 9 nM.

For `CCOC(=O)CN1CCN(CCNC(=O)c2c[nH]c(-c3cc(Oc4ccc(NC(=O)Nc5cc(C)ccc5F)cc4)ccn3)c2)CC1` [Example 157, ethyl [4-(2-{[(5-{4-[4-({[(2-fluoro-5-methylphenyl)amino]carbonyl}amino)phenoxy]pyridin-2-yl}-1H-pyrrol-3-yl)carbonyl]amino}ethyl)piperazin-1-yl]acetate], the IC50 in assay [1] is 10 nM; on VEGFR1, 8 nM; on PDGFβ it was 39 nM; at VEGFR2, 3 nM.

In the case of `CCOC(=O)CN1CCN(CCCNC(=O)c2c[nH]c(-c3cc(Oc4ccc(NC(=O)Nc5cc(C)ccc5F)cc4)ccn3)c2)CC1` [Example 158, ethyl [4-(3-{[(5-{4-[4-({[(2-fluoro-5-methylphenyl)amino]carbonyl}amino)phenoxy]pyridin-2-yl}-1H-pyrrol-3-yl)carbonyl]amino}propyl)piperazin-1-yl]acetate], the IC50 was 11 nM in assay [1], 6 nM against VEGFR1, 29 nM at PDGFβ and 11 nM at VEGFR2.

Regarding `Cc1ccc(F)c(NC(=O)Nc2ccc(Oc3ccnc(-c4cc(C(=O)NCCCN5CCOC(CO)C5)c[nH]4)c3)cc2)c1` (stereo not shown) [Example 159, 5-{4-[4-({[(2-fluoro-5-methylphenyl)amino]carbonyl}amino)phenoxy]pyridin-2-yl}-N-{3-[2-(hydroxymethyl)morpholin-4-yl]propyl}-1H-pyrrole-3-carboxamide], the IC50 in assay [1] stood at 11 nM; against VEGFR1, 9 nM; on PDGFβ it was 33 nM; on VEGFR2, 26 nM.

With `COC(=O)CCCOC(=O)c1c[nH]c(-c2cc(Oc3ccc(NC(=O)Nc4cc(C)ccc4F)cc3)ccn2)c1` [Example 165, 4-methoxy-4-oxobutyl 5-{4-[4-({[(2-fluoro-5-methylphenyl)amino]carbonyl}amino)phenoxy]pyridin-2-yl}-1H-pyrrole-3-carboxylate], the concentration for half-maximal inhibition (IC50) is 10 nM in assay [1], 17 nM on VEGFR1, 35 nM against PDGFβ and 12 nM at VEGFR2.

Take `CCOC(=O)CCCCNC(=O)c1c[nH]c(-c2cc(Oc3ccc(NC(=O)Nc4cc(C)ccc4F)cc3)ccn2)c1` [Example 167, ethyl 5-{[(5-{4-[4-({[(2-fluoro-5-methylphenyl)amino]carbonyl}amino)phenoxy]pyridin-2-yl}-1H-pyrrol-3-yl)carbonyl]amino}pentanoate]: the 50% inhibitory concentration (IC50) in assay [1] worked out at 9 nM; against VEGFR1, 21 nM; on PDGFβ, 27 nM; at VEGFR2, 11 nM.

For `CCOC(=O)N1CCN(CCNC(=O)c2c[nH]c(-c3cc(Oc4ccc(NC(=O)Nc5cc(C)ccc5F)c(F)c4)ccn3)c2)CC1` [Example 168, ethyl 4-(2-{[(5-{4-[3-fluoro-4-({[(2-fluoro-5-methylphenyl)amino]carbonyl}amino)phenoxy]pyridin-2-yl}-1H-pyrrol-3-yl)carbonyl]amino}ethyl)piperazine-1-carboxylate], the IC50 in assay [1] was 10 nM; at VEGFR1, 17 nM; on PDGFβ it was 12 nM; against VEGFR2, 11 nM.

With `CCOC(=O)N1CCN(CCCNC(=O)c2c[nH]c(-c3cc(Oc4cc(C(=O)Nc5cc(C)ccc5F)ccc4F)ccn3)c2)CC1` [Example 171, ethyl 4-{3-[({5-[4-(2-fluoro-5-{[(2-fluoro-5-methylphenyl)amino]carbonyl}phenoxy)pyridin-2-yl]-1H-pyrrol-3-yl}carbonyl)amino]propyl}piperazine-1-carboxylate], the IC50 was 23 nM in assay [1], 91 nM against VEGFR1, 33 nM against PDGFβ and 21 nM at VEGFR2.

Regarding `COC(=O)CCNC(=O)c1cc(-c2cc(Oc3ccc(NC(=O)Nc4cc(C)ccc4F)cc3)ccn2)cs1` [Example 279, methyl 3-{[(4-{4-[4-({[(2-fluoro-5-methylphenyl)amino]carbonyl}amino)phenoxy]pyridin-2-yl}-2-thienyl)carbonyl]amino}propanoate], the IC50 in assay [1] was 21 nM; against PDGFβ, 23 nM; against VEGFR2, 1 nM.

The record behind these values is US8906944B2, “Compounds as tyrosine kinase modulators” (Allergan, Inc., priority 2009, dated 2014).
